From US7776911B2 (priority 2005, dated 2010)
Entries after “also recorded” stand apart in the source; their conditions may differ.

Key:
[1] = system: P. berghei; assay: Protection of mice infected with P. berghei (mortality, parasite count in blood); format: in vivo
Method: (§1) Appropriate solvent controls were used. Parasite growth was measured by staining the slides with Giemsa as well as [α3H]-hypoxanthine uptake. In the latter case, the cultured cells were lysed with water and the parasites collected by filtration, washed and radioactivity measured. Adult f mice (40-50 g) were infected with P. berghei by intraperitoneal injection of an aliquot of infected mouse blood. After 24 hr, the animals were given a single injection of different amounts of artemisinin derivative at a dose of 5 mg/mouse. The oral feeding was repeated after 24 hr and 48 hr. Parasite count was measured in blood before and drug therapy at different time intervals using Giemsa to stain the slides. All the infected mice die in a span of 5-8 days and the efficacy of the drugs given singly or in combination was measured in terms of parasite clearance in blood and protection against mortality.
Striking results were obtained in terms of parasite clearance and protection against mortality. The experiments were carried out with 6 mice per batch and the experiments were repeated at least 3 times. The results presented in FIG. 3 represent those obtained in a typical experiment. The results obtained in the 2nd and 3rd experiments are identical in pattern. The average pattern obtained with the infected animals is as follows. All the infected animals die in about 5-8 days. […] A single injection of artemisinin derivative (α,β-arteether) at a dose of 500 μg/mouse results in death of animals in 10-12 days. […] Treatment with a single injection α,β-arteether at 750 μg and 1.5 mg results in death of animals between 20-26 days and 32-38 days respectively. […] The animals continue to live normally for several months. This picture is also supported by parasite load in blood (FIG. 4).
Methodology; Mice (−40 g) were infected ˜ with P. berghei by intraperitoneal infection. After 24 hrs, the animals received a single injection of different concentrations of a derivative of artemisinin (α,β-arteether) (500˜g to 1.5 mg) by the intramuscular route. […] The oral treatment was repeated after 24 hr and 48 hr. Blood smears were made from the mice at different day intervals and parasites stained with Giemsa. […] The experiments were repeated thrice with 6 mice in each group.

[2] = system: P. falciparum (chloroquine-resistant); assay: P. falciparum culture growth by [3H]-hypoxanthine uptake, drugs singly or in combination, with isobolographic analysis; format: cell-based, Plasmodium falciparum; conditions: 48 hrs, starting parasitemia 2-3%
Method: as §1
The potency of the combination was assessed by isobolographic characterization of the drug interactions. The additive or synergistic or antagonistic effects were assessed based on the following interaction index:
When I is less than 1 the drugs interact synergistically and the isobol bows below the line of additivity. When I is equal to 1 the isobol is coincident with the line of additivity and the interaction is additive. When I is greater than 1, the isobol bows above the line of additivity and the interaction is antagonistic. […] The interaction between curcumin and artemisinin is thus clearly synergistic.
P. falciparum (chloroquine-resistant) was maintained in culture using human O+ve red cells and serum by the candle jar method as per standard protocols. […] Appropriate solvent controls were used. Parasite growth was quantitatively measured using 3[H]-hypoxanthine uptake. The cultured cells were incubated for 48 hrs and then the parasites were collected by filtration after lysis of the cells. The filters were extensively washed and then radioactivity measured. […] The potency of the combination was assessed by isobolographic characterization of drug interactions.
The T values ranged from 0.7 to 0.85 in all combinations. The isobol bowling below the line of additivity and the T values being less than 1 indicate that the curcumin-artemisinin. Interaction is clearly synergistic

[3] = system: P. falciparum; conditions: culture of P. falciparum; cited from earlier work
[4] = system: P. berghei; conditions: mice infected with P. berghei; cited from earlier work

| Structure (SMILES) | death of animals ([1]; single injection 750 μg per mouse) [days] | death of animals ([1]; single injection 1.5 mg per mouse) [days] | parasite load in blood ([1]; single injection, Giemsa stained blood smears) | IC50 [2] [µM] | IC50 ([2]; Plasmodium falciparum) [µM] | death of animals ([1]; curcumin alone, 3 day oral treatment (5 mg), untreated infected mice die in 5-8 days) [days] | antimalarial activity [3] | antimalarial activity [4] |
| --- | --- | --- | --- | --- | --- | --- | --- | --- |
| CCO[C@H]1O[C@@H]2O[C@@]3(C)CC[C@H]4[C@H](C)CC[C@@H]([C@H]1C)[C@@]24OO3 [α,β-arteether] | 20 to 26 | 32 to 38 | clears the parasites in blood initially, but there is recrudescence; also recorded: clears parasites in blood initially, but there was recrudescence | – | – | – | – | – |
| C[C@@H]1CC[C@H]2[C@@H](C)C(=O)O[C@@H]3O[C@@]4(C)CC[C@@H]1[C@]32OO4 [artemisinin] | – | – | – | ~0.055 | 0.045 to 0.055 | – | – | – |
| COc1cc(/C=C/C(=O)CC(=O)/C=C/c2ccc(O)c(OC)c2)ccc1O [curcumin] | – | – | – | ~15 | 15 to 17 | 10 to 12 | has antimalarial activity | has antimalarial activity |
